Patent US12528818B2, “Compositions and methods for inhibition of RAS” (Leidos Biomedical Research, Inc., priority 2021, dated 2026)

These compounds were tested on pERK in NCI-H358 cells (assay: Cell-based pERK HTRF assay (pERK inhibition in H358 cells)). Settings: Homo sapiens, NCI-H358, 0.5 h, pERK inhibition IC50, NCI-H358 cells, 30 min incubation; read-out: PERK in H358 cell.

| Compound | IC50 [nM] |
| --- | --- |
| C=CC(=O)N1CC(Nc2nc(OC[C@@]34CCCN3C[C@H](F)C4)nc3c(F)c(-c4ccc(F)c5sc(N)nc45)c(C(F)(F)F)cc23)C1 [Compound 270] | < 100 |
| C=CC(=O)N1C[C@@H](F)[C@@H](N(C)c2nc(OC[C@@H]3C[C@@H](F)CN3C)nc3cc(-c4ccc(F)c5sc(N)c(C#N)c45)c(C(F)(F)F)cc23)C1 [Compound 356] | < 100 |
| C=CC(=O)N1C[C@@H](F)[C@@H](N(C)c2nc(OC[C@@]34CCCN3C[C@H](F)C4)nc3c(F)c(-c4ccc(F)c5sc(N)c(C#N)c45)c(Cl)cc23)C1 [Compound 365] | < 100 |
| C=CC(=O)N1C[C@H](C)N(c2nc(OC[C@@]34CCCN3C[C@H](F)C4)nc3c(F)c(-c4ccc(F)c5sc(N)nc45)c(C(F)(F)F)cc23)C[C@H]1C [Compound 202, 1-((2R,5S)-4-(7-(2-amino-7-fluorobenzo[d]thiazol-4-yl)-8-fluoro-2-(((2R,7aS)-2-fluorotetrahydro-1H-pyrrolizin-7a(5H)-yl)methoxy)-6-(trifluoromethyl)quinazolin-4-yl)-2,5-dimethylpiperazin-1-yl)prop-2-en-1-one] | < 100 |
| C=CC(=O)N1CC(N(c2nc(OCC3CCCN3C)nc3c(F)c(-c4ccc(F)c5sc(N)nc45)c(Cl)cc23)C(C)C)C1 (stereo not shown) [Compound 159] | > 1000 |
| C=CC(=O)N1C[C@H](C)N(c2nc(OC[C@@]34CCCN3C[C@@H](F)C4)nc3c(F)c(-c4ccc(F)c5sc(N)nc45)c(C(F)(F)F)cc23)C[C@H]1C [Compound 219] | < 100 |
| CC#CC(=O)N1CC(Nc2nc(OC[C@@H]3CCCN3C)nc3c(F)c(-c4ccc(F)c5sc(N)nc45)c(Cl)cc23)C1 [Compound 92, 1-[3-[[7-(2-amino-7-fluoro-1,3-benzothiazol-4-yl)-6-chloro-8-fluoro-2-[[(2S)-1-methylpyrrolidin-2-yl]methoxy]quinazolin-4-yl]amino]azetidin-1-yl]but-2-yn-1-one] | > 1000 |
| C=CC(=O)N1CC(Nc2nc(OC[C@@H]3CCCN3C)nc3c(F)c(-c4ccc(F)c5sc(N)nc45)ncc23)C1 [Compound 43] | > 1000 |
| C=CC(=O)N1C[C@@H](N(C)c2nc(OC[C@@]34CCCN3C[C@H](F)C4)nc3c(F)c(-c4ccc(F)c5sc(N)nc45)c(C(F)(F)F)cc23)C(C)(C)C1 [Compound 283] | > 1000 |
| C=CC(=O)N1C[C@@H](C)[C@@H](N(C)c2nc(OC[C@@]34CCCN3C[C@H](F)C4)nc3c(F)c(-c4ccc(F)c5sc(N)nc45)c(C(F)(F)F)cc23)C1 [Compound 292] | 100 to 1000 |
| C=CC(=O)N1CCN(c2nc(OC[C@@]34CCCN3C[C@@H](F)C4)nc3c(F)c(-c4ccc(F)c5sc(N)nc45)c(C(F)(F)F)cc23)[C@@H](C)C1 [Compound 218] | < 100 |
| C=CC(=O)N1C[C@H](C)N(c2nc(OC[C@@H]3CCCN3C)nc3c(F)c(-c4ccc(F)c5sc(N)c(C#N)c45)c(C(F)(F)F)cc23)C[C@H]1C [Compound 363, 4-(4-((2S,5R)-4-acryloyl-2,5-dimethylpiperazin-1-yl)-8-fluoro-2-(((S)-1-methylpyrrolidin-2-yl)methoxy)-6-(trifluoromethyl)quinazolin-7-yl)-2-amino-7-fluorobenzo[b]thiophene-3-carbonitrile] | < 100 |
| C=CC(=O)N1CC[C@@H]2[C@H]1CN2c1nc(OCC23CCCN2CCC3)nc2c(F)c(-c3ccc(F)c4sc(N)nc34)c(-c3ccoc3)cc12 [Compound 121] | > 1000 |
| CC#CC(=O)N1CCN(c2nc(OCC34CCCN3CC(F)(F)C4)nc3c(F)c(-c4ccc(F)c5sc(N)nc45)c(C(F)(F)F)cc23)CC1 (stereo not shown) [Compound 193] | > 1000 |

Same assay, conditions: pERK inhibition IC50, NCI-H358 cells, 30 min incubation; read-out: PERK in H358 cell

| Compound | IC50 [nM] |
| --- | --- |
| C=CC(=O)N1C[C@H](N(C)c2ncnc3c(F)c(-c4ccc(F)c5sc(N)nc45)c(C(F)(F)F)cc23)C[C@H]1C (atropisomer, axis not shown) [Compound 251] | > 1000 |
| C=CC(=O)N1CC[C@@H](N(C)c2nc(OC[C@]34CCCN3C[C@H](OC)C4)nc3c(F)c(-c4ccc(F)c5sc(N)nc45)c(C(F)(F)F)cc23)C1 (atropisomer, axis not shown) [Compound 278] | 100 to 1000 |
